Reference: PubChem BioAssay AID1745844 (Carcinogenic Potency Database (CPDB), 2022)
Activity calls are given as the source filed them. The rule behind the calls is not given here.

System: rodent lifetime carcinogenesis bioassay, tumor incidence TD50
Assay: chronic cancer bioassays in animals – CPDB, compiled studies (AID 1745844)

SMILES: CCCCCC(N)=O
- carcinogen call (mouse, strain C57BL/6, females, in feed, site: liver, lesion: hepatocellular carcinoma, dosed 52 weeks, study length 69 weeks): negative (inactive)
- TD50 (mouse, strain C57BL/6, females, in feed, site: lung, lesion: alveolar/bronchiolar adenoma, dosed 52 weeks, study length 69 weeks): 37200 mg/kg/day (inactive)
- TD50 (mouse, strain C57BL/6, females, in feed, site: stomach, lesion: squamous-cell papilloma, dosed 52 weeks, study length 69 weeks): 8900 mg/kg/day
- TD50 (mouse, strain C57BL/6, males, in feed, site: all sites, lesion: malignant lymphoma, histiocytic type, dosed 52 weeks, study length 69 weeks): 2140 mg/kg/day
- TD50 (mouse, strain C57BL/6, males, in feed, site: all sites, lesion: several types, types named in the paper, dosed 52 weeks, study length 69 weeks): 1950 mg/kg/day
- TD50 (mouse, strain C57BL/6, males, in feed, site: liver, lesion: hemangiosarcoma, dosed 52 weeks, study length 69 weeks): 25300 mg/kg/day (inactive)
- TD50 (mouse, strain C57BL/6, males, in feed, site: liver, lesion: malignant lymphoma, histiocytic type, dosed 52 weeks, study length 69 weeks): 25300 mg/kg/day
- TD50 (mouse, strain C57BL/6, males, in feed, site: lung, lesion: alveolar/bronchiolar adenoma, dosed 52 weeks, study length 69 weeks): 3490 mg/kg/day (inactive)
- TD50 (mouse, strain C57BL/6, males, in feed, site: multiple organs, lesion: malignant lymphoma, histiocytic type, dosed 52 weeks, study length 69 weeks): 2660 mg/kg/day
- carcinogen call (rat, strain Fischer 344, females, in feed, site: liver, lesion: one or several types, types not named, dosed 52 weeks, study length 69 weeks): negative (inactive)
- carcinogen call (rat, strain Fischer 344, males, in feed, site: liver, lesion: one or several types, types not named, dosed 52 weeks, study length 69 weeks): negative (inactive)

SMILES: CCCC(Cl)CCCC(Cl)CCC(Cl)CCC(Cl)CCC(Cl)CCCC(Cl)CCC (stereo unspecified)
- TD50 (mouse, strain B6C3F1, females, by gavage, site: Harderian gland, lesion: adenoma, NOS, dosed 103 weeks, study length 104 weeks): 347 mg/kg/day
- TD50 (mouse, strain B6C3F1, females, by gavage, site: liver + thyroid gland, lesion: hepatocellular adenoma + hepatocellular carcinoma + follicular-cell adenoma + follicular-cell carcinoma, dosed 103 weeks, study length 104 weeks): 86.8 mg/kg/day
- TD50 (mouse, strain B6C3F1, females, by gavage, site: lung, lesion: alveolar/bronchiolar adenoma + alveolar/bronchiolar carcinoma, dosed 103 weeks, study length 104 weeks): 1.22e+06 mg/kg/day
- TD50 (mouse, strain B6C3F1, females, by gavage, site: multiple organs, lesion: malignant lymphoma, lymphocytic type, dosed 103 weeks, study length 104 weeks): 599 mg/kg/day
- TD50 (mouse, strain B6C3F1, females, by gavage, site: thyroid gland, lesion: follicular-cell adenoma + follicular-cell carcinoma, dosed 103 weeks, study length 104 weeks): 307 mg/kg/day
- TD50 (mouse, strain B6C3F1, females, by gavage, site: thyroid gland, lesion: follicular-cell adenoma, dosed 103 weeks, study length 104 weeks): 372 mg/kg/day
- TD50 (mouse, strain B6C3F1, males, by gavage, site: liver + mesenteric lymph node + multiple organs + small intestine + spleen, lesion: malignant lymphoma, NOS + malignant lymphoma, mixed type + malignant lymphoma, lymphocytic type + malignant lymphoma, histiocy, dosed 103 weeks, study length 104 weeks): 6540 mg/kg/day
- TD50 (mouse, strain B6C3F1, males, by gavage, site: liver, lesion: hepatocellular adenoma + hepatocellular carcinoma, dosed 103 weeks, study length 104 weeks): 143 mg/kg/day
- TD50 (mouse, strain B6C3F1, males, by gavage, site: liver, lesion: hepatocellular adenoma, dosed 103 weeks, study length 104 weeks): 157 mg/kg/day
- TD50 (mouse, strain B6C3F1, males, by gavage, site: lung, lesion: alveolar/bronchiolar carcinoma, dosed 103 weeks, study length 104 weeks): 606 mg/kg/day
- TD50 (mouse, strain B6C3F1, males, by gavage, site: mesenteric lymph node + multiple organs + small intestine + spleen, lesion: malignant lymphoma, mixed type, dosed 103 weeks, study length 104 weeks): 12100 mg/kg/day
- TD50 (mouse, strain B6C3F1, males, by gavage, site: mesenteric lymph node + multiple organs, lesion: malignant lymphoma, lymphocytic type, dosed 103 weeks, study length 104 weeks): 22900 mg/kg/day
- TD50 (mouse, strain B6C3F1, males, by gavage, site: multiple organs, lesion: malignant lymphoma, histiocytic type, dosed 103 weeks, study length 104 weeks): 43200 mg/kg/day
- TD50 (mouse, strain B6C3F1, males, by gavage, site: thyroid gland, lesion: follicular-cell carcinoma, dosed 103 weeks, study length 104 weeks): 44000 mg/kg/day
- TD50 (rat, strain Fischer 344, females, by gavage, site: adrenal medulla, lesion: pheochromocytoma + pheochromocytoma, malignant, dosed 103 weeks, study length 105 weeks): 2350 mg/kg/day
- TD50 (rat, strain Fischer 344, females, by gavage, site: any site (literature study), lesion: several types, types named in the paper, dosed 104 weeks, study length 105 weeks): 1100 mg/kg/day
- TD50 (rat, strain Fischer 344, females, by gavage, site: liver + thyroid gland, lesion: hepatocellular carcinoma + neoplastic nodule + follicular-cell adenoma + follicular-cell carcinoma, dosed 104 weeks, study length 105 weeks): 583 mg/kg/day
- TD50 (rat, strain Fischer 344, females, by gavage, site: liver, lesion: hepatocellular adenoma + hepatocellular carcinoma + neoplastic nodule, dosed 103 weeks, study length 105 weeks): 24800 mg/kg/day
- TD50 (rat, strain Fischer 344, females, by gavage, site: liver, lesion: hepatocellular adenoma + hepatocellular carcinoma + neoplastic nodule, dosed 104 weeks, study length 105 weeks): 1140 mg/kg/day
- TD50 (rat, strain Fischer 344, females, by gavage, site: liver, lesion: hepatocellular carcinoma + neoplastic nodule, dosed 104 weeks, study length 105 weeks): 1140 mg/kg/day
- TD50 (rat, strain Fischer 344, females, by gavage, site: liver, lesion: neoplastic nodule, dosed 104 weeks, study length 105 weeks): 1200 mg/kg/day
- TD50 (rat, strain Fischer 344, females, by gavage, site: multiple organs, lesion: mononuclear-cell leukemia, dosed 104 weeks, study length 105 weeks): 345 mg/kg/day
- TD50 (rat, strain Fischer 344, females, by gavage, site: pancreas, lesion: acinar-cell adenoma, dosed 104 weeks, study length 105 weeks): 839 mg/kg/day
- TD50 (rat, strain Fischer 344, females, by gavage, site: thyroid gland, lesion: follicular-cell adenoma + follicular-cell carcinoma, dosed 104 weeks, study length 105 weeks): 1160 mg/kg/day
- TD50 (rat, strain Fischer 344, females, by gavage, site: thyroid gland, lesion: follicular-cell adenoma, dosed 104 weeks, study length 105 weeks): 736 mg/kg/day
- TD50 (rat, strain Fischer 344, females, by gavage, site: thyroid gland, lesion: follicular-cell carcinoma, dosed 104 weeks, study length 105 weeks): 4060 mg/kg/day
- TD50 (rat, strain Fischer 344, females, by gavage, site: uterus, lesion: endometrial stromal polyp + endometrial stromal sarcoma, dosed 104 weeks, study length 105 weeks): 394 mg/kg/day
- TD50 (rat, strain Fischer 344, males, by gavage, site: adrenal gland, lesion: pheochromocytoma + pheochromocytoma, malignant, dosed 104 weeks, study length 105 weeks): 192 mg/kg/day
- TD50 (rat, strain Fischer 344, males, by gavage, site: any site (literature study), lesion: several types, types named in the paper, dosed 104 weeks, study length 105 weeks): 75.7 mg/kg/day
- TD50 (rat, strain Fischer 344, males, by gavage, site: kidney + liver, lesion: tubular-cell adenoma + tubular-cell adenocarcinoma + hepatocellular carcinoma + neoplastic nodule, dosed 104 weeks, study length 105 weeks): 110 mg/kg/day
- TD50 (rat, strain Fischer 344, males, by gavage, site: kidney, lesion: tubular-cell adenoma + tubular-cell adenocarcinoma, dosed 104 weeks, study length 105 weeks): 196 mg/kg/day
- TD50 (rat, strain Fischer 344, males, by gavage, site: kidney, lesion: tubular-cell adenoma, dosed 104 weeks, study length 105 weeks): 417 mg/kg/day
- TD50 (rat, strain Fischer 344, males, by gavage, site: liver, lesion: hepatocellular adenoma + hepatocellular carcinoma + neoplastic nodule, dosed 103 weeks, study length 105 weeks): 14500 mg/kg/day
- TD50 (rat, strain Fischer 344, males, by gavage, site: liver, lesion: hepatocellular adenoma + hepatocellular carcinoma + neoplastic nodule, dosed 104 weeks, study length 105 weeks): 123 mg/kg/day
- TD50 (rat, strain Fischer 344, males, by gavage, site: liver, lesion: hepatocellular carcinoma + neoplastic nodule, dosed 104 weeks, study length 105 weeks): 123 mg/kg/day
- TD50 (rat, strain Fischer 344, males, by gavage, site: liver, lesion: hepatocellular carcinoma, dosed 104 weeks, study length 105 weeks): 551 mg/kg/day
- TD50 (rat, strain Fischer 344, males, by gavage, site: liver, lesion: neoplastic nodule, dosed 103 weeks, study length 105 weeks): 14500 mg/kg/day (inactive)
- TD50 (rat, strain Fischer 344, males, by gavage, site: liver, lesion: neoplastic nodule, dosed 104 weeks, study length 105 weeks): 173 mg/kg/day
- TD50 (rat, strain Fischer 344, males, by gavage, site: mammary gland, lesion: fibroadenoma, dosed 104 weeks, study length 105 weeks): 566 mg/kg/day
- TD50 (rat, strain Fischer 344, males, by gavage, site: multiple organs + spleen, lesion: mononuclear-cell leukemia, dosed 104 weeks, study length 105 weeks): 406 mg/kg/day
- TD50 (rat, strain Fischer 344, males, by gavage, site: pancreas, lesion: acinar-cell adenoma, dosed 104 weeks, study length 105 weeks): 150 mg/kg/day
- TD50 (rat, strain Fischer 344, males, by gavage, site: pancreas, lesion: acinar-cell carcinoma + acinar-cell adenoma, dosed 104 weeks, study length 105 weeks): 144 mg/kg/day
- TD50 (rat, strain Fischer 344, males, by gavage, site: pancreatic islets, lesion: islet-cell adenoma, dosed 103 weeks, study length 105 weeks): 17600 mg/kg/day
- TD50 (rat, strain Fischer 344, males, by gavage, site: preputial gland, lesion: adenoma, NOS + carcinoma, NOS, dosed 104 weeks, study length 105 weeks): 522 mg/kg/day
- TD50 (rat, strain Fischer 344, males, by gavage, site: preputial gland, lesion: adenoma, NOS, dosed 104 weeks, study length 105 weeks): 568 mg/kg/day
- TD50 (rat, strain Fischer 344, males, by gavage, site: skin + subcutaneous tissue, lesion: fibroma, dosed 104 weeks, study length 105 weeks): 332 mg/kg/day
- TD50 (rat, strain Fischer 344, males, by gavage, site: testis, lesion: interstitial-cell tumor, dosed 104 weeks, study length 105 weeks): 75.2 mg/kg/day

SMILES: Clc1cccc(-c2ccc(Cl)c(Cl)c2Cl)c1Cl
- TD50 (mouse, strain BALB/cJ, males, in feed, site: liver, lesion: hepatoma, dosed 26 weeks, study length 47 weeks): 64.6 mg/kg/day
- TD50 (mouse, strain BALB/cJ, males, in feed, site: liver, lesion: hepatoma, dosed 47 weeks, study length 47 weeks): 9.58 mg/kg/day
- TD50 (rat, strain Fischer 344, females, in feed, site: liver, lesion: adenoma, NOS, dosed 105 weeks, study length 105 weeks): 34.8 mg/kg/day
- carcinogen call (rat, strain Fischer 344, females, in feed, site: stomach, lesion: adenocarcinoma, NOS, dosed 105 weeks, study length 105 weeks): a
- TD50 (rat, strain Fischer 344, males, in feed, site: all sites, lesion: leukemia + lymphoma, dosed 105 weeks, study length 105 weeks): 5.94 mg/kg/day
- TD50 (rat, strain Fischer 344, males, in feed, site: all sites, lesion: leukemia, dosed 105 weeks, study length 105 weeks): 6.75 mg/kg/day
- TD50 (rat, strain Fischer 344, males, in feed, site: any site (literature study), lesion: several types, types named in the paper, dosed 105 weeks, study length 105 weeks): 3.23 mg/kg/day
- TD50 (rat, strain Fischer 344, males, in feed, site: cecum + jejunum + stomach, lesion: adenocarcinoma, NOS, dosed 105 weeks, study length 105 weeks): 34.6 mg/kg/day
- TD50 (rat, strain Fischer 344, males, in feed, site: liver, lesion: adenoma, NOS + hepatocellular carcinoma, dosed 105 weeks, study length 105 weeks): 15.1 mg/kg/day
- TD50 (rat, strain Fischer 344, males, in feed, site: liver, lesion: hepatocellular adenoma + hepatocellular carcinoma + neoplastic nodule, dosed 105 weeks, study length 105 weeks): 20.8 mg/kg/day
- TD50 (rat, strain Sprague-Dawley, females, in feed, site: liver, lesion: cholangioma, dosed 104 weeks, study length 104 weeks): 15.3 mg/kg/day
- TD50 (rat, strain Sprague-Dawley, females, in feed, site: liver, lesion: hepatocellular adenoma, dosed 104 weeks, study length 104 weeks): 3.07 mg/kg/day
- TD50 (rat, strain Sprague-Dawley, females, in feed, site: liver, lesion: hepatocellular carcinoma, dosed 104 weeks, study length 104 weeks): 28.6 mg/kg/day
- TD50 (rat, strain Sprague-Dawley, females, in feed, site: liver, lesion: several types, types named in the paper, dosed 104 weeks, study length 104 weeks): 2.82 mg/kg/day
- TD50 (rat, strain Sprague-Dawley, males, in feed, site: liver, lesion: several types, types named in the paper, dosed 104 weeks, study length 104 weeks): 55.1 mg/kg/day
- TD50 (rat, strain Sprague-Dawley, males, in feed, site: thyroid gland, lesion: follicular-cell adenoma, dosed 104 weeks, study length 104 weeks): 20.2 mg/kg/day
- TD50 (rat, strain Sprague-Dawley, males, in feed, site: thyroid gland, lesion: follicular-cell carcinoma, dosed 104 weeks, study length 104 weeks): 89 mg/kg/day
- TD50 (rat, strain Sprague-Dawley, males, in feed, site: thyroid gland, lesion: several types, types named in the paper, dosed 104 weeks, study length 104 weeks): 16.1 mg/kg/day
